In assay [1] the test system is C57BL/6NCrlBr mice. Description: Mouse object recognition (OR) task after subchronic PCP. It counts as in vivo. On the procedure: (§1) Subchronic PCP treatment: The subPCP administration regimen used in rats was conducted as described in ([Goetghebeur and Dias, 2009]), which is a reliable method for inducing deficits in our hands. Rats in the subPCP experiments received injections of 5 mg/mL PCP or vehicle (saline) s.c. at a 1 mL/kg injection volume twice per day for 7 days. […] The mouse subPCP regimen was conducted as described in [Pedersen et al. (2014)]. Briefly, mice received vehicle or PCP (1.3 mg/mL concentration, 10 mL/kg injection volume) s.c once per day for 14 days followed by a 7-day washout prior to experimentation.
(§2) Object placement and OR tasks in mice were executed in Perspex boxes measuring 40 × 40 cm with dark gray walls and a white floor. The tests were conducted during the light phase, yet in a subdued light (≈20 lux) and with the radio turned on in the background. Each trial was recorder by a camera mounted above the test arenas and later scored manually.
(§3) Objects in the mouse OP task consisted of small stork sculptures made of plaster, which were 11.5 cm in height, with a roughly rectangle-shaped base 7.5 cm in length and 4.8 cm in width. For the mouse OR task, objects consisted of (1) small cylindrical pepper mills (purchased empty, having never contained spice) made of clear plastic (10.5 cm in height, 4.5 cm diameter), and (2) small salt shakers made of light blue glass (again, purchased empty; 11.5 cm in height, 4.5 cm diameter). […]
(§4) The primary dependent measure for the OR and object placement tasks was a novel object or novel placement preference score, which were calculated from raw object investigation times using the following equation: Preference Score = ITN/(ITN + ITF)^∗100, where ITN represents the investigation time for the novel object or placement, and ITF represents the investigation for the familiar object or placement. Total exploration times from the information and test trials were analyzed for OP and OR experiments. Preference score and total exploration time data was analyzed for treatment group differences using a one-way between-subjects ANOVA. […]

For assay [2], the system named is C57BL/6NCrlBr mice. Description: Mouse object placement (OP) task after subchronic PCP. The assay is classed as in vivo. On the procedure: as §1, §2, §3, §4
The next assay concerns 5-HT3 receptor. Conditions: 2014, cited from earlier work.

Where two headings read alike, the source gives them in different places. Some results are limits rather than exact numbers.

Turning to `Cl.c1ccc(C2(N3CCCCC3)CCCCC2)cc1` [PCP, 1-(1-phenylcyclohexyl)-piperidine hydrochloride], the “novel object preference score” value in the assay on C57BL/6NCrlBr mice [1] (subPCP/veh vs control mice, PCP 13 mg/kg s.c. once per day 14 days, 7-day washout, p < 0.001) is “significantly lower novel object preference scores”. Besides, the “novel placement preference score” value in the assay with C57BL/6NCrlBr mice [2] (subPCP/vehicle vs vehicle/vehicle mice, p < 0.01) is reported as “significantly reduced novel placement preference scores”.

For the molecule `Cc1ccc(Sc2ccccc2N2CCNCC2)c(C)c1` [vortioxetine], in the assay with 5-HT3 receptor (1 mg/kg acute dose, ref Leiser et al.), the “occupancy at the 5-HT3 receptor” value is listed as “full occupancy”. Also, the “occupancy at 5-HT3 receptors” value in the assay on 5-HT3 receptor (10 mg/kg 1 h s.c., full occupancy, ref Leiser et al.) is given as no less than 80%; in the assay with 5-HT3 receptor (subchronic dose used in the mouse OR and object placement tasks, ref Wallace et al., Waller et al., 2017), “full occupancy”. Moreover, the “novel object preference score, vehicle/vortioxetine vs vehicle/vehicle” value with C57BL/6NCrlBr mice [1] (mice without PCP, 10 mg/kg s.c. bolus then 0.6 g/kg chow) is recorded as “no statistically significant difference”. The “novel object preference score vs subPCP/vehicle” value in the assay with C57BL/6NCrlBr mice [1] (subPCP/vortioxetine mice, 10 mg/kg s.c. bolus then 0.6 g/kg chow, p < 0.01) is recorded as “significantly higher novel object preference scores”. Also, in the assay with C57BL/6NCrlBr mice [2] (subPCP-treated mice, 10 mg/kg s.c. bolus plus seven days 0.6 g/kg chow, p < 0.05), the “attenuation of subPCP-induced object placement task impairment” value is recorded as “significantly attenuated”. Moreover, the “object placement task performance vs vehicle/vehicle” value in the assay on C57BL/6NCrlBr mice [2] (vortioxetine/vehicle group, mice without PCP) was “did not perform significantly better”.

The values are drawn from paper PMC5845537 (Frontiers in Pharmacology, 2018).
